Broadly, the bioavailability is the share of a dose that reaches the circulation, judged against a reference dose that is usually intravenous. Broadly, the half-life is the time needed for the level to fall by half in the phase considered. A high value points to slow loss. A word on the AUC: it is the area under the concentration-time curve, a measure of exposure. Broadly, the CL/F is clearance divided by bioavailability, as obtained after extravascular dosing. The term Cmax denotes the highest concentration seen after dosing. As usually defined, the Tmax is the time at which the peak concentration occurs. A word on the IC50: it is the point on the concentration scale where inhibition reaches its midpoint.

This note sets out measurements from patent US11613542B2, “Sulfonylureas and sulfonylthioureas as NLRP3 inhibitors” (Inflazome Limited, priority 2017, dated 2023).

Where two headings read alike, the source gives them in different places.

The nature of data set [1]: Pharmacokinetic parameters in male Sprague Dawley rats (intravenous and oral administration). It is filed as in vivo. The settings on record: male, Sprague Dawley, dose per compound (mg/kg); for bioavailability: plasma, rat, read-out: Bioavailability; for clearance / half-life / AUC / Vd / CL/F / Cmax / Tmax: rat plasma; for AUC: read-out: AUC; for Vd: read-out: Vdss; for Cmax: read-out: Cmax; for Tmax: read-out: Tmax. The method, boiled down: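 IV dosing via tail vein (solution in water or DMSO:PBS 10:90) and oral dosing (water or DMSO:water 10:90); some oral groups fasted overnight. Serial plasma sampled at 8, 9 or 12 time-points up to 24 h post dose. PK parameters derived from LC-MS/MS plasma concentrations.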

Data set [2] deals with T1, NLRP3 (Homo sapiens, UniProt Q96P20). Kind of data set: Human whole blood IL1β release assay. It counts as cell-based. The settings on record: human whole blood, 1 μg/ml LPS, compound 3 hrs, nigericin 10 μM 1 hr, IL-1β AlphaLisa; read-out: HWB IC50. On the set-up: Human whole blood in Li-heparin tubes was obtained from healthy donors; from tissue; host or cells: human whole blood from healthy donors, LPS-primed, nigericin-stimulated. In short, it runs like this:
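Healthy-donor human whole blood (Li-heparin) primed with 1 μg/ml LPS, with compound (8-point half-log, 10 μM top) or 0.1% DMSO for 3 h at 37 °C, then 10 μM nigericin (final) for 1 h. Supernatant IL-1β read by AlphaLISA; IC50 from 4-parameter variable-slope fit.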

Data set [3] has as its target T1, NLRP3. Kind of data set: THP-1 cells pyroptosis assay. It counts as cell-based. The arrangement: Seed THP-1 cells (25,000 cells/well) containing 1.0 μg/ml LPS; host or cells: THP-1 cells, LPS-primed, nigericin-stimulated. Conditions: THP-1 cells, 1.0 μg/ml LPS, compound 3 hrs, nigericin 5 μM 1 hr, resazurin readout; read-out: THP IC50. The method, boiled down:
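THP-1 cells (25,000/well) in serum-free RPMI with 1.0 μg/ml LPS, treated with compound (8-point half-log dilution, 10 μM top, 0.1% DMSO), then nigericin 5 μM final. Viability read by resazurin (100 μM final, 1-2 h, 37° C) fluorescence Ex 560/Em 590 nm; IC50 from 4-parameter variable-slope fit.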
On the technique in general: Alamar Blue is a resazurin reagent that responds to reducing activity.

T1 sequence (Q96P20 whole entry): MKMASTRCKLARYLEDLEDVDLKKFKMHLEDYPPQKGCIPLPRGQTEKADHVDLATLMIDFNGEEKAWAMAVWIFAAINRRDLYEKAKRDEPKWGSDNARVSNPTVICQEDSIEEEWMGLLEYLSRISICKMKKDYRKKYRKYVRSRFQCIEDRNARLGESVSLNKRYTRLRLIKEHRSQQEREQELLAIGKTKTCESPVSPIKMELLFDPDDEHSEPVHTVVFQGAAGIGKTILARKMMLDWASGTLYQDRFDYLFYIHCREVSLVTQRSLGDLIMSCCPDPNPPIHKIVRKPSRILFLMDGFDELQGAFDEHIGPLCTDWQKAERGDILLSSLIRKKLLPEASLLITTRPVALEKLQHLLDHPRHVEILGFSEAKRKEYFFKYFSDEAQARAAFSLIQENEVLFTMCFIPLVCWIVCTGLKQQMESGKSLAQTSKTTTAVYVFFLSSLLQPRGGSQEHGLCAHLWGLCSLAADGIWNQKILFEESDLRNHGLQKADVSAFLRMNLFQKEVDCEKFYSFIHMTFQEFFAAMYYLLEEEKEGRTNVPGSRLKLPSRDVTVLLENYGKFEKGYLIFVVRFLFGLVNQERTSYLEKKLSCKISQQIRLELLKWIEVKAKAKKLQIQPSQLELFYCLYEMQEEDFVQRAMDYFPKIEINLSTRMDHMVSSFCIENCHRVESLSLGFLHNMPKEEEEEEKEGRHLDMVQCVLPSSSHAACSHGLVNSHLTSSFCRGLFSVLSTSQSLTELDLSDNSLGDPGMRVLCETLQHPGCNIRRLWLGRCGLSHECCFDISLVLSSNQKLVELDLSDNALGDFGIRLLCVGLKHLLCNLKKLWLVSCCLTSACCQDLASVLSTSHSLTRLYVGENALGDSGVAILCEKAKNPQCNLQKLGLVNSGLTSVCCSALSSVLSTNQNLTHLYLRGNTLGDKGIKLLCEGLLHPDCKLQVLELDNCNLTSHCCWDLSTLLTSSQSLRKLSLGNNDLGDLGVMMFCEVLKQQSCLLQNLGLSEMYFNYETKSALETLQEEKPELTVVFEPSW

Take `CN(C)CC(C)(C)n1ccc(S(=O)(=O)NC(=O)Nc2c3c(cc4c2CCC4)CCC3)n1` [Example 17, 1-(1-(Dimethylamino)-2-methylpropan-2-yl)-N-((1,2,3,5,6,7-hexahydro-s-indacen-4-yl)carbamoyl)-1H-pyrazole-3-sulfonamide]: in data set [1] (oral administration), the bioavailability was found to be 18.5%, the CL/F was 6.1 mL/min/kg, the half-life is 2.3 h and the AUC is 8760 ng·h/mL. Further, in data set [1] (oral administration), the Cmax worked out at 2810 ng/mL and the Tmax worked out at 0.67 h. Also, in data set [1] (intravenous administration), the clearance turned out to be 1.1 mL/min/kg, the half-life was 2.5 h, the AUC came to 15800 ng·h/mL and the Vd is 0.18 L/kg. The IC50 on NLRP3 [2] was < 1600 nM. Moreover, the IC50 on NLRP3 [3] is < 160 nM.

With `CN(C)CCn1ccc(S(=O)(=O)NC(=O)Nc2c3c(cc4c2CCC4)CCC3)n1` [Example 7, 1-(2-(Dimethylamino)ethyl)-N-((1,2,3,5,6,7-hexahydro-s-indacen-4-yl)carbamoyl)-1H-pyrazole-3-sulfonamide], in data set [1] (oral administration), the bioavailability stood at 52.7%, the CL/F amounted to 5 mL/min/kg, the half-life is 3 h and the AUC came to 15200 ng·h/mL. Also, in data set [1] (oral administration), the Cmax stood at 3250 ng/mL and the Tmax amounted to 1 h. For the same compound, in data set [1] (intravenous administration), the clearance came out at 2.6 mL/min/kg, the half-life was 3.7 h, the AUC worked out at 6420 ng·h/mL and the Vd was 0.38 L/kg. Further, the half-inhibitory concentration (IC50) at NLRP3 [2] was < 400 nM. Also, the IC50 at NLRP3 [3] was < 640 nM.
